Tests used:
Format in all cases: cell-based
human naïve B cells [1] = tested on: human naïve B cells
human naïve B cells [2] = test: Antibody class switching of naïve B cells after statin treatment, flow cytometry on Day 14; conditions: 5 μM Rosuvastatin 48 hours, then culture to Day 14, versus PBS control, FIG. 3
Procedure: As noted above, statins and other agents should not substantially reduce target cell activity and function. One function of naïve B cells is the ability to engage in antibody class switching. […] Specifically, human naïve B cells were isolated and cultured as described above in Example 1. Cells were plated at a density of 1×10^5 cells B cells per 6 well with 1×10^4 feeder cells plated the previous day. The dual culture was grown in the media and cytokine mix described above with or without 5 μM Rosuvastatin. After 48 hours of treatment, media was changed and cells were allowed to continue growing in the media and fresh cytokines. Every 3-4 days half of the media was removed and replaced with fresh media and cytokines at 1× concentration. Cells were trypsinized and split 1:5 at day 7. Subclass of expressed antibody was assessed by flow cytometry on Day 14.

human naïve B cells [3] = test: LDL-R antibody enhancement of lentiviral transduction of B cells in feeder culture, GFP by flow cytometry; conditions: 48 hour 5 μM Rosuvastatin

## CC(C)c1nc(N(C)S(C)(=O)=O)nc(-c2ccc(F)cc2)c1/C=C/[C@@H](O)C[C@@H](O)CC(=O)O [rosuvastatin]
Human naïve B cells [1]
  B cell transduction percentage, some replicates: exceeding 90%
  GFP expression compared to B cells not treated with the statin or not transduced: substantially higher
  average B cell transduction percentage as measured by GFP expression, between technical replicates: 80%
  transduction relative to B cells not incubated with rosuvastatin: about 100 fold
Human naïve B cells [2]
  percent of B cells expressing the measured subclasses of antibody (class switching): did not alter
Human naïve B cells [3]; GFP+ virus, feeder culture + 250 ng/ml IL-2, no LDL-R antibody
  Median Fluorescence Intensity: 9.5
Human naïve B cells [3]; GFP+ virus, feeder culture + 250 ng/ml IL-2, with anti-mouse LDL-R antibody 2 μg/mL
  Median Fluorescence Intensity: 10
Human naïve B cells [3]; GFP− virus (control virus), feeder culture + 250 ng/ml IL-2, no LDL-R antibody
  Median Fluorescence Intensity: 3
